Measurements: US7759345B2, “Antitumoral derivatives of ET-743” (priority 2001, dated 2010)

Tests used:
SK-MEL-28 = assay: Inhibition of cells growth by colorimetric assay (SRB), SK-MEL-28; format: cell-based
Method in brief: (§1)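 Human cancer cells (5×10^3/well) attached 18 h in RPMI 1640 10% FBS, then exposed 48 h at 37°C to compounds from 10 to 10^−8 μg/ml in DMSO/EtOH/PBS. TCA-fixed, SRB-stained, OD read at 490 nm; GI, TGI and LC derived from triplicate wells.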

MDA-MB-231 = assay: Inhibition of cells growth by colorimetric assay (SRB), MDA-MB-231; format: cell-based
Method in brief: as §1

tumor cell culture = assay: Bioassays for antitumor screening, cell line not given; format: cell-based; conditions: cell line not stated
From the text: Bioassays for Antitumor Screening
The finality of these assays is to interrupt the growth of a “in vitro” tumor cell culture by means a continued exhibition of the cells to the sample to be testing.

A-498 = assay: Inhibition of cells growth by colorimetric assay (SRB), A-498; format: cell-based
Method in brief: as §1

SW620 = assay: Inhibition of cells growth by colorimetric assay (SRB), SW620; format: cell-based
Method in brief: as §1

DU-145 [1] = assay: Inhibition of cells growth by colorimetric assay (SRB), DU-145; format: cell-based
Method in brief: as §1

HT-29 [2] = assay: Inhibition of cells growth by colorimetric assay (SRB), HT-29; format: cell-based
Method in brief: as §1

MCF-7 = assay: Inhibition of cells growth by colorimetric assay (SRB), MCF-7; format: cell-based
Method in brief: as §1

A-549 [3] = assay: Inhibition of cells growth by colorimetric assay (SRB), A-549; format: cell-based
Method in brief: as §1

DU-145 [4] = assay: Inhibition of cell growth by counting cells, DU-145; format: cell-based, human; conditions: Homo sapiens, DU-145, 72 h; three days of incubation; read-out: IC50 (molar) DU-145
Method in brief: (§2)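 Growth inhibition by direct cell counting: exponentially growing cells treated 3 days with compound at 37° C; IC50 derived from dose-response of net cells per well.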

P-388 = assay: Inhibition of cell growth by counting cells, P-388; format: cell-based, mouse; conditions: Mus musculus, P388, 72 h; three days of incubation; read-out: IC50 (molar) P-388
Method in brief: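 IC50 is the sample concentration halving growth, taken from dose-response curves of cell counts (Coulter counter, duplicate wells) relative to drug-free cultures. P-388 (DBA/2 mouse lymphoid neoplasm) cells plated at 1×10^4 per well in EMEM with 5% FCS plus test sample.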

MEL-28 = assay: Inhibition of cell growth by counting cells, MEL-28; format: cell-based, human; conditions: Homo sapiens, SK-MEL-28, 72 h; three days of incubation; read-out: IC50 (molar) MEL-28
Method in brief: as §2

HT-29 [5] = assay: Inhibition of cell growth by counting cells, HT-29; format: cell-based, human; conditions: Homo sapiens, HT-29, 72 h; three days of incubation; read-out: IC50 (molar) HT-29
Method in brief: as §2

A-549 [6] = assay: Inhibition of cell growth by counting cells, A-549; format: cell-based, human; conditions: Homo sapiens, A549, 72 h; three days of incubation; read-out: IC50 (molar) A-549
Method in brief: as §2

From the text for Heart: (§3) Toxicity was asssessed by the methods reported in Toxicology in Vitro, 15 (2001) 571-577, J. Luber Narod et al.: “Evaluation of the use of in vitro methodolodies as tools for screening new compounds for potential in vivo toxicity”.
From the text for Kidney: as §3
From the text for Liver: as §3
From the text for Myelo: as §3
From the text for Skeletal: as §3

COc1cc2c(cc1OC(=O)OC(C)(C)C)CCN[C@]21CS[C@@H]2c3c(OC(=O)OC(C)(C)C)c(C)c4c(c3[C@H](COC1=O)N1C2[C@H]2c3c(cc(C)c(OC)c3OC(=O)OC(C)(C)C)C[C@@H]([C@@H]1O)N2C)OCO4 (some centres unmarked) [Compound 174]
Toxicity Data Liver (Liver): 1.34E-08 | GI50 (SK-MEL-28; Homo sapiens, SK-MEL-28, 48 h, SRB assay, 48 hours exposure, read-out: MEL-28 GI50): 1.96 nM | CC50 (SK-MEL-28; Homo sapiens, SK-MEL-28, 48 h, read-out: MEL-28 LC50, SRB assay, 48 hours exposure): 9.8 nM | MEL-28 TGI (SK-MEL-28; SRB assay, 48 hours exposure): 4.90E-09 | CC50 (MDA-MB-231; Homo sapiens, MDA-MB-231, 48 h, read-out: MB-231 LC50): 98 nM | GI50 (MDA-MB-231; Homo sapiens, MDA-MB-231, SRB assay, 48 hours exposure, read-out: MB-231 GI50): 0.98 nM | MB-231 TGI (MDA-MB-231; SRB assay, 48 hours exposure): 5.88E-09 | antitumor activity (in words) (tumor cell culture): very active (E-10) | LC50 (A-498; Homo sapiens, A498, 48 h, read-out: A-498 LC50): 9.8 nM | GI50 (A-498; Homo sapiens, A498, SRB assay, 48 hours exposure, read-out: A-498 GI50): 1.96 nM | A-498 TGI (A-498; SRB assay, 48 hours exposure): 3.92E-09 | Toxicity Data Skeletal (Skeletal): 9.80E-07 | LC50 (SW620; Homo sapiens, SW-620, 48 h, read-out: SW-620 LC50): 686 nM | GI50 (SW620; Homo sapiens, SW-620, SRB assay, 48 hours exposure, read-out: SW-620 GI50): 0.98 nM | SW-620 TGI (SW620; SRB assay, 48 hours exposure): 6.86E-09 | GI50 (DU-145 [1]; Homo sapiens, DU-145, 48 h, SRB assay, 48 hours exposure, read-out: DU-145 GI50): 0.294 nM | CC50 (DU-145 [1]; Homo sapiens, DU-145, 48 h, read-out: DU-145 LC50, SRB assay, 48 hours exposure): 3.92 nM | DU-145 TGI (DU-145 [1]; SRB assay, 48 hours exposure): 9.80E-10 | Toxicity Data Heart (Heart): 2.76E-08 | GI50 (HT-29 [2]; Homo sapiens, HT-29, 48 h, SRB assay, 48 hours exposure, read-out: HT-29 GI50): 1.96 nM | LC50 (concentration for 50% cell killing) (HT-29 [2]; Homo sapiens, HT-29, 48 h, read-out: HT-29 LC50, SRB assay, 48 hours exposure): 9.8 nM | HT-29 TGI (HT-29 [2]; SRB assay, 48 hours exposure): 6.86E-09 | Toxicity Data Myelo (Myelo): 7.27E-08 | GI50 (MCF-7; Homo sapiens, MCF7, 48 h, read-out: MCF GI50): 3.92 nM | CC50 (MCF-7; Homo sapiens, MCF7, 48 h, read-out: MCF LC50): 88.2 nM | MCF TGI (MCF-7; SRB assay, 48 hours exposure): 1.96E-08 | GI50 (A-549 [3]; Homo sapiens, A549, 48 h, SRB assay, 48 hours exposure, read-out: A-549 GI50): 0.98 nM | LC50 (concentration for 50% cell killing) (A-549 [3]; Homo sapiens, A549, 48 h, read-out: A-549 LC50, SRB assay, 48 hours exposure): 9.8 nM | A-549 TGI (A-549 [3]; SRB assay, 48 hours exposure): 2.94E-09 | Toxicity Data Kidney (Kidney): 1.24E-08

CCCCCCCCCCCCCCCC(=O)Oc1c(C)c2c(c3c1[C@H]1SC[C@]4(NCCc5cc(O)c(OC)cc54)C(=O)OC[C@@H]3N3C1[C@H]1c4c(cc(C)c(OC)c4O)C[C@@H]([C@@H]3O)N1C)OCO2 (some centres unmarked) [Compound 170]
IC50 (DU-145 [4]): 52.2 nM | Toxicity Data Liver (Liver): 3.58E-07 | IC50 (P-388): 52.2 nM | IC50 (MEL-28): 52.2 nM | antitumor activity (in words) (tumor cell culture): active | IC50 (HT-29 [5]): 52.2 nM | IC50 (A-549 [6]): 52.2 nM | Toxicity Data Skeletal (Skeletal): 3.29E-07 | Toxicity Data Heart (Heart): non toxic | Toxicity Data Myelo (Myelo): non toxic | Toxicity Data Kidney (Kidney): 3.01E-07
